# Measured values published in patent US20260258035A1, “FIVE-MEMBERED AND SIX-MEMBERED NITROGEN-CONTAINING COMPOUND, AND INTERMEDIATE, PREPARATION METHOD AND USE THEREOF” (HANGZHOU SYNRX THERAPEUTICS BIOMEDICAL TECHNOLOGY CO., LTD., priority 2022, published 2026).
# Read-outs that look alike come from different tables or passages of the source.
# Columns and labels:
# HCC1806 = assay: Cell viability assay (CellTiter-Glo); assay type: cell-based, Human; details: HCC1806, 7 days, CellTiter-Glo, read-out: IC50 (nM) in cell viability assay
# PARG = PARG (Homo sapiens, UniProt Q86W56); assay: Biochemical assay (PARG, TFMU-ADPr substrate)
# Sequence of PARG (Q86W56 whole entry): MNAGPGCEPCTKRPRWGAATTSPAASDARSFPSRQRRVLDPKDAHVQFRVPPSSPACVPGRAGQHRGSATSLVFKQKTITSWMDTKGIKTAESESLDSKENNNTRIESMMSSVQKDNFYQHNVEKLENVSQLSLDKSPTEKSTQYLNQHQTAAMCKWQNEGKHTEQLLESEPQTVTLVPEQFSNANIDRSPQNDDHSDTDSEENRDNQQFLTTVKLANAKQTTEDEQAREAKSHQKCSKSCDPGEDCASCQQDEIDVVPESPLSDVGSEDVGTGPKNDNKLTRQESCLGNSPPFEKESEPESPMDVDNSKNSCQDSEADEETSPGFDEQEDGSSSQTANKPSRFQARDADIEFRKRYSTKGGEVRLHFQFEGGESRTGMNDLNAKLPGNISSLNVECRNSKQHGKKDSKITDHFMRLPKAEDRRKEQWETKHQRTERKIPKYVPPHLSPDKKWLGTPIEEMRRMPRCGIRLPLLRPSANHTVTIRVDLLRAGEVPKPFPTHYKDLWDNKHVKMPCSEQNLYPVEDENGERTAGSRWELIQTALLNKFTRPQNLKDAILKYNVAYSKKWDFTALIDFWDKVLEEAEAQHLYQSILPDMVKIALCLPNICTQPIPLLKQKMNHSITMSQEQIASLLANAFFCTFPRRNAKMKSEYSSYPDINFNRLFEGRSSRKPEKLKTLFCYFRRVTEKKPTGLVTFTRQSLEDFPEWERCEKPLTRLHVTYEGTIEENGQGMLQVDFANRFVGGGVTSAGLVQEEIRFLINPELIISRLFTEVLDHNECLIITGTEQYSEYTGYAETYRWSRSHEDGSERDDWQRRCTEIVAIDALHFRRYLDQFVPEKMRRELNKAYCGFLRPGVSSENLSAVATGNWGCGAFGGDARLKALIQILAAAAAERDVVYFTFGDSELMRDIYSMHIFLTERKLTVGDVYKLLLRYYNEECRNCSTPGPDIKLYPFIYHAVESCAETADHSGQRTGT
SMILES,"IC50 (HCC1806; Homo sapiens, HCC1806, 168 h) [nM]","IC50 (PARG; PARG, TFMU-ADPr substrate) [nM]",IC50 (HCC1806) [nM],"IC50 (PARG; 4 nM PARG, 66.2 uM TFMU-ADPr, 3 min at room temperature) [nM]"
"COCC1CN(c2cc(S(=O)(=O)NC3(CF)COC3)cn3c(-c4nnc(C(F)F)s4)nc(Cl)c23)CCN1 (stereo not drawn) [Example 136, 1-chloro-3-(5-(difluoromethyl)-1,3,4-thiadiazol-2-yl)-N-(3-(fluoromethyl)oxetan-3-yl)-8-(3-(methoxymethyl)piperazin-1-yl)imidazo[1,5-a]pyridine-6-sulfonamide]",199,7.94,,
"CN1CC2CN(c3cc(S(=O)(=O)NC4(C)COC4)cn4c(-c5nnc(C(F)(F)F)s5)ncc34)CCN2C(=O)C12CC2 (stereo not drawn) [Example 393, 8-(2′-methyl-4′-oxohexahydro-4′H,8′H-spiro[cyclopropane-1,3′-pyrazino[1,2-a]pyrazin]-8′-yl)-N-(3-methyloxetan-3-yl)-3-(5-(trifluoromethyl)-1,3,4-thiadiazol-2-yl)imidazo[1,5-a]pyridine-6-sulfonamide]",222,5.75,,
"C[C@H]1CN(c2cc(S(=O)(=O)NC3(CF)COC3)cn3c(-c4nnc(C(F)F)s4)ncc23)C[C@H](C)N1 [Example 359, 3-(5-(difluoromethyl)-1,3,4-thiadiazol-2-yl)-8-((3S,5S)-3,5-dimethylpiperazin-1-yl)-N-(3-(fluoromethyl)oxetan-3-yl)imidazo[1,5-a]pyridine-6-sulfonamide]",47,1.44,,
"Cc1ncnn1CC(=O)N1CCN(c2cc(S(=O)(=O)NC3(C)CC3)cn3c(-c4nnc(C(F)(F)F)s4)ncc23)CC1 [Example 335, 8-(4-(2-(5-methyl-1H-1,2,4-triazol-1-yl)acetyl)piperazin-1-yl)-N-(1-methylcyclopropyl)-3-(5-(trifluoromethyl)-1,3,4-thiadiazol-2-yl)imidazo[1,5-a]pyridine-6-sulfonamide]",480,6.55,,
"N#CC1(NS(=O)(=O)c2cc(N3CCN(C(=O)[C@@H]4CCCO4)CC3)c3cnc(-c4nnc(C(F)(F)F)s4)n3c2)CC1 [Example 301, (S)-N-(1-cyanocyclopropyl)-8-(4-(tetrahydrofuran-2-carbonyl)piperazin-1-yl)-3-(5-(trifluoromethyl)-1,3,4-thiadiazol-2-yl)imidazo[1,5-a]pyridine-6-sulfonamide]",436,50.1,,
"CN(C)CCN(C)C(=O)N1CCN(c2cc(S(=O)(=O)NC3(C)COC3)cn3c(-c4nnc(C(F)(F)F)s4)ncc23)CC1 [Example 185, N-(2-(dimethylamino)ethyl)-N-methyl-4-(6-(N-(3-methyloxetan-3-yl)sulfamoyl)-3-(5-(trifluoromethyl)-1,3,4-thiadiazol-2-yl)imidazo[1,5-a]pyridin-8-yl)piperazine-1-carboxamide]",797,4.58,,
"CN(C)C1(C(=O)N2CCN(c3cc(S(=O)(=O)NC4(C#N)CC4)cn4c(-c5nnc(C(F)(F)F)s5)ncc34)CC2)CC1 [Example 266, N-(1-cyanocyclopropyl)-8-(4-(1-(dimethylamino)cyclopropane-1-carbonyl)piperazin-1-yl)-3-(5-(trifluoromethyl)-1,3,4-thiadiazol-2-yl)imidazo[1,5-a]pyridine-6-sulfonamide]",370,132,,
"CN(C)C(=O)N1CCN(c2cc(S(=O)(=O)NC3(C)CC3)cn3c(-c4nnc(C(F)F)s4)ncc23)CC1 [Example 308, 4-(3-(5-(difluoromethyl)-1,3,4-thiadiazol-2-yl)-6-(N-(1-methylcyclopropyl)sulfamoyl)imidazo[1,5-a]pyridin-8-yl)-N,N-dimethylpiperazine-1-carboxamide]",104,0.73,,
"CC1(NS(=O)(=O)c2cc(N3CCC(O)(C(F)(F)F)CC3)c3cnc(-c4nnc(C(F)F)s4)n3c2)COC1 [Example 72, 3-(5-(difluoromethyl)-1,3,4-thiadiazol-2-yl)-8-(4-hydroxy-4-(trifluoromethyl)piperidin-1-yl)-N-(3-methyloxetan-3-yl)imidazo[1,5-a]pyridine-6-sulfonamide]",500 to 5000,17.8,805,< 100
"CC1(NS(=O)(=O)c2cc(N3CCN(C(=O)C4CCOCC4)CC3)c3cnc(-c4nnc(C(F)(F)F)s4)n3c2)CC1 [Example 292, N-(1-methylcyclopropyl)-8-(4-(tetrahydro-2H-pyran-4-carbonyl)piperazin-1-yl)-3-(5-(trifluoromethyl)-1,3,4-thiadiazol-2-yl)imidazo[1,5-a]pyridine-6-sulfonamide]",40,4.57,,
"COC1(C(=O)N2[C@@H](C)CN(c3cc(S(=O)(=O)NC4(C)COC4)cn4c(-c5nnc(C(F)F)s5)ncc34)C[C@@H]2C)CC1 [Example 399, 3-(5-(difluoromethyl)-1,3,4-thiadiazol-2-yl)-8-((3S,5S)-4-(1-methoxycyclopropane-1-carbonyl)-3,5-dimethylpiperazin-1-yl)-N-(3-methyloxetan-3-yl)imidazo[1,5-a]pyridine-6-sulfonamide]",755,12.6,,
"CC1(NS(=O)(=O)c2cc(N3CCN(C(=O)C4(OCCO)CC4)CC3)c3cnc(-c4nnc(C(F)(F)F)s4)n3c2)CC1 [Example 383, 8-(4-(1-(2-hydroxyethoxy)cyclopropane-1-carbonyl)piperazin-1-yl)-N-(1-methylcyclopropyl)-3-(5-(trifluoromethyl)-1,3,4-thiadiazol-2-yl)imidazo[1,5-a]pyridine-6-sulfonamide]",14.8,0.25,,

# Results, then the compound that gave them:
"IC50 (HCC1806; Homo sapiens, HCC1806, 168 h) [nM]","IC50 (PARG; PARG, TFMU-ADPr substrate) [nM]",IC50 (HCC1806) [nM],"IC50 (PARG; 4 nM PARG, 66.2 uM TFMU-ADPr, 3 min at room temperature) [nM]",SMILES
2440,13.2,,,"N#CC1(NS(=O)(=O)c2cc(N3CCN(C(=O)C4CC4(F)F)CC3)c3cnc(-c4nnc(C(F)(F)F)s4)n3c2)CC1 (stereo not drawn) [Example 240, N-(1-cyanocyclopropyl)-8-(4-(2,2-difluorocyclopropane-1-carbonyl)piperazin-1-yl)-3-(5-(trifluoromethyl)-1,3,4-thiadiazol-2-yl)imidazo[1,5-a]pyridine-6-sulfonamide]"
2340,31.6,,,"CC(=O)N1CCN(c2cc(S(=O)(=O)NC3(C#N)CC3)cn3c(-c4nnc(C(F)(F)F)s4)ncc23)C[C@H]1C [Example 216, (R)-8-(4-acetyl-3-methylpiperazin-1-yl)-N-(1-cyanocyclopropyl)-3-(5-(trifluoromethyl)-1,3,4-thiadiazol-2-yl)imidazo[1,5-a]pyridine-6-sulfonamide]"
9000,75.9,,,"N#CC1(NS(=O)(=O)c2cc(N3CCN(c4ccccn4)CC3)c3cnc(-c4nnc(C(F)(F)F)s4)n3c2)CC1 [Example 244, N-(1-cyanocyclopropyl)-8-(4-(pyridin-2-yl)piperazin-1-yl)-3-(5-(trifluoromethyl)-1,3,4-thiadiazol-2-yl)imidazo[1,5-a]pyridine-6-sulfonamide]"
222,209,,,"COc1ccc(C(=O)/C=C/C(=O)N2CCN(c3cc(S(=O)(=O)NC4(C#N)CC4)cn4c(-c5nnc(C(F)(F)F)s5)ncc34)CC2)cc1 [Example 211, (E)-N-(1-cyanocyclopropyl)-8-(4-(4-(4-methoxyphenyl)-4-oxobut-2-enoyl)piperazin-1-yl)-3-(5-(trifluoromethyl)-1,3,4-thiadiazol-2-yl)imidazo[1,5-a]pyridine-6-sulfonamide]"
35900,91.2,,,"N#CC1(NS(=O)(=O)c2cc(N3CCN(C(=O)[C@@H]4CCCN4)CC3)c3cnc(-c4nnc(C(F)(F)F)s4)n3c2)CC1 [Example 270, (S)-N-(1-cyanocyclopropyl)-8-(4-prolylpiperazin-1-yl)-3-(5-(trifluoromethyl)-1,3,4-thiadiazol-2-yl)imidazo[1,5-a]pyridine-6-sulfonamide]"
